Experimental findings from patent US20080056993A1, “Compositions, Methods and Kits Using Adenosine and Inosine in Combination for Diagnosis and Treatment” (ADENOBIO N.V., priority 2006, published 2008) are described below.

SMILES strings stand for the structures.

The nature of data set [1]: Maximal solubility in nonpyrogenic fluid suitable for parenteral infusion. The format is physicochemical. As to conditions: adenosine and inosine combined in a nonpyrogenic fluid suitable for parenteral infusion. How it is done: Combined in a nonpyrogenic, fluid suitable for parenteral infusion, maximal adenosine solubility is about 4 mg/ml and that of inosine 20 mg/ml. Concentrations approaching one or both of these maxima are convenient for unit dosage forms intended for long infusion times, since high concentrations of the nucleoside actives reduce the volume required to be infused. Typical embodiments include, for example, 250 ml containers (vials, etc.) containing 1,000 mg of adenosine with 100 mg, 1,000 mg, 2,000 mg, or even 3,000 mg, 4,000 mg, 5,000 mg, even 6,000 mg of inosine, with intermediate inosine amounts permissible.

Another data set concerns anaesthetized rats. The data set can be described thus: Carotid blood flow (CaBF) in anaesthetized rats, continuous i.v. infusion. The format is in vivo, rat. Particulars: for effect of inosine alone on CaBF: 5 min i.v. infusion. The procedure:
The study was conducted on 7 week old male Wistar rats weighing 250-300 g. Rats were anaesthetized with Inactin 100 mg/kg i.p. Inactin was preferred to other anaesthetics because of its moderate impact on blood pressure. Heparin-filled (100 IU/ml in saline) catheters were introduced into the left common carotid artery and into the left jugular vein for measurement of blood pressure and drug administration respectively. A flow probe was inserted around the right carotid artery for measurement of carotid blood flow (CaBF).
In a first series of experiments, adenosine was administered as a single agent to identify the dose providing maximal increase in carotid arterial blood flow (“adenosine max”). In this experiment, various concentrations of adenosine were infused continuously through the jugular vein catheter for 5 minutes, with concurrent measurement of carotid arterial blood flow.
A second series of experiments was performed to assess whether inosine could potentiate the effects on CaBF of a continuous intravenous infusion of adenosine at half adenosine max.
In each experiment, the effect on CaBF of (i) adenosine as a single agent, infused continuously for five minutes at adenosine max (0.1 mg/kg/min), (ii) adenosine as single agent infused continuously for five minutes at half adenosine max (0.05 mg/kg/min), and (iii) a composition containing a fixed dose of adenosine at half adenosine max (0.05 mg/kg/min) combined with inosine infused continuously for five minutes, was assessed. In separate experiments, inosine was included in the combined (“BIDOSINE”) composition in amounts required to achieve infusion at 0.1 mg/kg/min (A:I weight ratio of 1:2, FIG. 2A), 0.15 mg/kg/min (A:I weight ratio of 1:3, FIG. 2B), 0.2 mg/kg/min (A:I weight ratio of 1:4, FIG. 2C), and 0.25 mg/kg/min (A:I weight ratio of 1:5, FIG. 2D).

With `OC[C@H]1O[C@@H](n2cnc3c(O)ncnc32)[C@H](O)[C@@H]1O` [inosine], the solubility in data set [1] is 20 mg/mL. In addition, the “increase in CaBF, percentage variation from baseline” value with anaesthetized rats (6 min continuous i.v. infusion, adenosine 0.05 mg/kg/min, inosine 0.2 mg/kg/min, alone or combined (A:I 1:4), Mean±SEM, n=6) stood at 4±2%. The “effect of inosine alone on CaBF” value in the data set on anaesthetized rats (inosine 0.3 mg/kg/min) is “No response”; in the data set with anaesthetized rats (inosine 1 mg/kg/min (10 times adenosine max)), “Modest decreases in CaBF”; with anaesthetized rats (inosine between 1 to 10 mg/kg/min), “sharp slump and dose-dependent decrease in CaBF”.

A word on the solubility: it is the dissolved amount per volume that the medium holds.
